Assays:
Format in all cases: cell-based
Proteus vulgaris = assay: MIC against Gram-negative bacteria: Proteus vulgaris; details: for MIC against P. vulgaris / MIC P. vulgaris: 96-well plate, 5×10^5 CFU/mL, 37° C., 10 h
Description: (§1) 1. Gram-negative bacteria, such as E. coli BL21, Pseudomonas aeruginosa, Klebsiella pneumonia, Enterobacter cloacae, Aeromonas hydrophila, Citrobacter diversus, Moraxella catarrhalis, Proteus mirabilis, Proteus vulgaris, Serratia marcescens, etc were streaked on solid LB medium and cultured respectively. Then, typical clones were picked, inoculated into common liquid LB medium respectively, and cultured at 37° C. with shaking at 185 rpm until the McFarland specific turbidity was 0.5. The bacterial culture of each of Gram-negative bacteria was centrifuged at 4000×g for 3 min, the supernatant was discarded, and the thalli were resuspended with fresh LB medium.
(§2) 2. The above-mentioned bacterial suspensions were diluted and inoculated into 96-well plates with the final concentration of the bacterial suspension being 5×10^5 CFU/mL per well.
(§3) 3. Each of the purified human-originated EGF domain proteins (PRT1 to PRT1498 in Table 1) was added to each of the above wells and subjected to two-fold serial dilution in concentration. Three parallel wells were set up for each concentration in the gradient.
(§4) 4. The above-mentioned 96-well plates were placed and cultured at 37° C. in shaking incubator shaking at 175 rpm. […] The minimal inhibitory concentration MIC is defined as the lowest concentration of the recombinant protein at which there is no growth of the bacteria.

Moraxella catarrhalis = assay: MIC against Gram-negative bacteria: Moraxella catarrhalis; details: for MIC against M. catarrhalis / MIC M. catarrhalis: 96-well plate, 5×10^5 CFU/mL, 37° C., 10 h
Description: as §1, §2, §3, §4

Pseudomonas aeruginosa = assay: MIC against Gram-negative bacteria: Pseudomonas aeruginosa; details: for MIC against P. aeruginosa / MIC P. aeruginosa: 96-well plate, 5×10^5 CFU/mL, 37° C., 10 h
Description: as §1, §2, §3, §4

E. coli DH5α = assay: Antibacterial activity: MIC and growth curve against E. coli DH5α in 96-well plate; details: minimal inhibitory concentration against E. coli DH5α; 96-well plate, 5×10^5 CFU/mL, 37° C., judged after 8 h
Description: 1. E. coli DH5α was exemplified. E. coli DH5α was streaked and cultured on LB solid medium. Then, a typical clone was picked and inoculated into common LB liquid medium, cultured at 37° C. with shaking at 185 rpm until the logarithmic growth phase was reached (OD600 of about 0.5). The bacterial culture was centrifuged at 4000×g for 3 min, the supernatant was discarded, and the thalli were resuspended with fresh LB medium.
2. The above-mentioned bacterial suspension was diluted and inoculated into a 96-well plate with the total volume of 100 μL per well and a bacterial count of 5×10^5 CFU/mL.
3. The recombinant protein hF VII-EGF1 was added to the above-mentioned wells with the final protein concentration in the well of the highest protein concentration being 50 μg/mL. Basing on this final concentration, a two-fold serial dilution was performed till a protein concentration gradient consisting of 50, 25, and 12.5 μg/mL was set up. Three parallel wells were set up for each concentration in the gradient.
as §4, with “plate was” for “plates were”, “rpm. Samples were taken every 30 min, the absorbance values were determined at 600 nm wavelength under a ultra violet spectrophotometer, and an inhibition curve was plotted.” for “rpm.”
According to the experimental procedures in Example 14, the minimal inhibitory concentrations (MIC, μg/mL) of the other human-originated EGF domain proteins (PRT2 to PRT1498 in Table 1) for E. coli DH5α were determined.

Citrobacter diversus = assay: MIC against Gram-negative bacteria: Citrobacter diversus; details: for MIC against C. diversus / MIC C. diversus: 96-well plate, 5×10^5 CFU/mL, 37° C., 10 h
Description: as §1, §2, §3, §4

Klebsiella pneumonia = assay: MIC against Gram-negative bacteria: Klebsiella pneumonia; details: for MIC against K. pneumonia / MIC K. pneumonia: 96-well plate, 5×10^5 CFU/mL, 37° C., 10 h
Description: as §1, §2, §3, §4

Proteus mirabilis = assay: MIC against Gram-negative bacteria: Proteus mirabilis; details: for MIC against P. mirabilis / MIC P. mirabilis: 96-well plate, 5×10^5 CFU/mL, 37° C., 10 h
Description: as §1, §2, §3, §4

Aeromonas hydrophila = assay: MIC against Gram-negative bacteria: Aeromonas hydrophila; details: for MIC against A. hydrophila / MIC A. hydrophila: 96-well plate, 5×10^5 CFU/mL, 37° C., 10 h
Description: as §1, §2, §3, §4

E. coli BL21 = assay: MIC against Gram-negative bacteria: E. coli BL21; details: for MIC against E. coli BL21 / MIC E. coli BL21: 96-well plate, 5×10^5 CFU/mL, 37° C., 10 h
Description: as §1, §2, §3, §4

Serratia marcescens = assay: MIC against Gram-negative bacteria: Serratia marcescens; details: for MIC against S. marcescens / MIC S. marcescens: 96-well plate, 5×10^5 CFU/mL, 37° C., 10 h
Description: as §1, §2, §3, §4

Enterobacter cloacae = assay: MIC against Gram-negative bacteria: Enterobacter cloacae; details: for MIC against E. cloacae / MIC E. cloacae: 96-well plate, 5×10^5 CFU/mL, 37° C., 10 h
Description: as §1, §2, §3, §4

Substance	MIC against P. vulgaris (Proteus vulgaris)	MIC against M. catarrhalis (Moraxella catarrhalis)	MIC against P. aeruginosa (Pseudomonas aeruginosa)	MIC (E. coli DH5α)	MIC against C. diversus (Citrobacter diversus)	MIC against K. pneumonia (Klebsiella pneumonia)	MIC against P. mirabilis (Proteus mirabilis)	MIC against A. hydrophila (Aeromonas hydrophila)	MIC against E. coli BL21 (E. coli BL21)	MIC against S. marcescens (Serratia marcescens)	MIC against E. cloacae (Enterobacter cloacae)	MIC P. vulgaris (Proteus vulgaris)	MIC M. catarrhalis (Moraxella catarrhalis)	MIC P. aeruginosa (Pseudomonas aeruginosa)	MIC C. diversus (Citrobacter diversus)	MIC K. pneumonia (Klebsiella pneumonia)	MIC P. mirabilis (Proteus mirabilis)	MIC A. hydrophila (Aeromonas hydrophila)	MIC E. coli BL21 (E. coli BL21)	MIC S. marcescens (Serratia marcescens)	also measured
PRT573 (CPCPDGPDSGRQFARSCYQDPVTLQLACVCDPGYIGSRCDDCASGYFGNPSEVGGSCQP; listed as Homo sapiens)	50 µg/mL	50 µg/mL	25 µg/mL	25 µg/mL	12.5 µg/mL	12.5 µg/mL	12.5 µg/mL	12.5 µg/mL	12.5 µg/mL	12.5 µg/mL	25 µg/mL										
PRT660 (DHDECQDLACENGECVNTEGSFHCFCSPPLTLDLSQQRCM; listed as Homo sapiens)				12.5 µg/mL								50 µg/mL	12.5 µg/mL	12.5 µg/mL	50 µg/mL	12.5 µg/mL	25 µg/mL	12.5 µg/mL	50 µg/mL	12.5 µg/mL	MIC E. cloacae (Enterobacter cloacae): 50 µg/mL
PRT974 (EADPCLSRPCLHGGVCSAAHPGFRCTCLESFTGPQCQ; listed as Homo sapiens)				25 µg/mL																	MIC (Proteus vulgaris; P. vulgaris, 10 h cultivation at 37° C.): 25 µg/mL; MIC (Moraxella catarrhalis; M. catarrhalis, 10 h cultivation at 37° C.): 12.5 µg/mL; MIC (Pseudomonas aeruginosa; P. aeruginosa, 10 h cultivation at 37° C.): 12.5 µg/mL; MIC (Citrobacter diversus; C. diversus, 10 h cultivation at 37° C.): 25 µg/mL; MIC (Klebsiella pneumonia; K. pneumonia, 10 h cultivation at 37° C.): 50 µg/mL; MIC (Proteus mirabilis; P. mirabilis, 10 h cultivation at 37° C.): 50 µg/mL; MIC (Aeromonas hydrophila; A. hydrophila, 10 h cultivation at 37° C.): 50 µg/mL; MIC (E. coli BL21; E. coli BL21, 10 h cultivation at 37° C.): 50 µg/mL; MIC (Serratia marcescens; S. marcescens, 10 h cultivation at 37° C.): 12.5 µg/mL; MIC (Enterobacter cloacae; E. cloacae, 10 h cultivation at 37° C.): 12.5 µg/mL
PRT728 (ATNPCKDNNGGCEQVCVLSHRTDNDGLGFRCKCTFGFQLDTDERHCI; listed as Homo sapiens)				25 µg/mL								12.5 µg/mL	12.5 µg/mL	25 µg/mL	25 µg/mL	12.5 µg/mL	12.5 µg/mL	12.5 µg/mL	25 µg/mL	25 µg/mL	MIC E. cloacae (Enterobacter cloacae): 25 µg/mL
PRT531 (CDCNLEGVLPEICDAHGRCLCRPGVEGPRCDTCRSGFYSFPICQA; listed as Homo sapiens)	12.5 µg/mL	12.5 µg/mL	12.5 µg/mL	50 µg/mL	50 µg/mL	25 µg/mL	50 µg/mL	12.5 µg/mL	25 µg/mL	50 µg/mL	50 µg/mL										
